# Source: US8802597B2, “Herbicidal pyrimidines” (E I du Pont de Nemours and Company, priority 2003, dated 2014)
# Key:
# Assay in all cases: Test C pre/postemergence
# Format in all cases: in vivo
# [1] = tested on: giant foxtail (Setaria faberii); conditions: for Plant response rating (scale of 0 to 100), Foxtail, Giant / Foxtail, Giant plant response rating: Postemergence; for Foxtail, Giant plant response rating: scale 0 to 100 (0 no effect, 100 complete control); for Plant response rating, Foxtail, Giant: Preemergence
# From the text: (§1) Seeds or nutlets of plant species selected from bermudagrass (Cynodon dactylon), Surinam grass (Brachiaria decumbens), cocklebur (Xanthium strumarium), corn (Zea mays), crabgrass (Digitaria sanguinalis), woolly cupgrass (Eriochloa villosa), giant foxtail (Setaria faberii), goosegrass (Eleusine indica), johnsongrass (Sorghum halepense), kochia (Kochia scoparia), lambsquarters (Chenopodium album), morningglory (Ipomoea coccinea), eastern black nightshade (Solanum ptycanthum), yellow nutsedge (Cyperus esculentus), pigweed (Amaranthus retroflexus), common ragweed (Ambrosia elatior), soybean (Glycine max), common (oilseed) sunflower (Helianthus annuus), and velvetleaf (Abutilon theophrasti) were planted and treated preemergence with test chemicals formulated in a non-phytotoxic solvent mixture which included a surfactant.
# (§2) At the same time, plants selected from these crop and weed species and also winter barley (Hordeum vulgare), blackgrass (Alopecurus myosuroides), canarygrass (Phalaris minor), chickweed (Stellaria media), downy brome (Bromus tectorum), green foxtail (Setaria viridis), Italian ryegrass (Lolium multiflorum), wheat (Triticum aestivum), wild oat (Avena fatua) and windgrass (Apera spica-venti) were treated with postemergence applications of some of the test chemicals formulated in the same manner. Plants ranged in height from 2 to 18 cm (1- to 4-leaf stage) for postemergence treatments. Plant species in the flooded paddy test consisted of rice (Oryza sativa), umbrella sedge (Cyperus difformis), duck salad (Heteranthera limosa) and barnyardgrass (Echinochloa crus-galli) grown to the 2-leaf stage for testing. Treated plants and controls were maintained in a greenhouse for 12 to 14 days, after which time all species were compared to controls and visually evaluated. Plant response ratings, summarized in Table C, are based on a scale of 0 to 100 where 0 is no effect and 100 is complete control. A dash (-) response means no test result.
# soybean (Glycine max) = conditions: for Plant response rating (scale of 0 to 100), Soybean / Soybean plant response rating: Postemergence; for Soybean plant response rating: scale 0 to 100 (0 no effect, 100 complete control); for Plant response rating, Soybean: Preemergence
# From the text: as §1, §2
# [2] = tested on: bermudagrass (Cynodon dactylon); conditions: for Plant response rating (scale of 0 to 100), Bermudagrass / Bermudagrass plant response rating: Postemergence; for Bermudagrass plant response rating: scale 0 to 100 (0 no effect, 100 complete control); for Plant response rating, Bermudagrass: Preemergence
# From the text: as §1, §2
# [3] = tested on: johnsongrass (Sorghum halepense); conditions: for Johnsongrass plant response rating: Postemergence, scale 0 to 100 (0 no effect, 100 complete control); for Plant response rating, Johnsongrass: Preemergence
# From the text: as §1, §2
# [4] = 16 g ai/ha, scale 0 to 100, 0 no effect, 100 complete control
# [5] = 31 g ai/ha, scale 0 to 100, 0 no effect, 100 complete control
# [6] = 62 g ai/ha, scale 0 to 100, 0 no effect, 100 complete control
smiles,measurement,setting,value
CCOC(=O)C(OC(C)=O)c1nc(C2CC2)nc(N)c1Br (stereo not drawn) [Compound 47],"Plant response rating (scale of 0 to 100), Foxtail, Giant",[1]; 16 g ai/ha,0
same,"Plant response rating (scale of 0 to 100), Foxtail, Giant",[1]; 31 g ai/ha,0
same,"Foxtail, Giant plant response rating",[1]; 62 g ai/ha,0
same,"Foxtail, Giant plant response rating",[1]; 125 g ai/ha,0
same,"Plant response rating, Foxtail, Giant",[1]; [4],0
same,"Plant response rating, Foxtail, Giant",[1]; [5],0
same,"Plant response rating, Foxtail, Giant",[1]; [6],0
same,"Plant response rating, Foxtail, Giant","[1]; 125 g ai/ha, scale 0 to 100",20
same,"Plant response rating (scale of 0 to 100), Soybean",soybean (Glycine max); 16 g ai/ha,20
same,"Plant response rating (scale of 0 to 100), Soybean",soybean (Glycine max); 31 g ai/ha,40
same,Soybean plant response rating,soybean (Glycine max); 62 g ai/ha,65
same,Soybean plant response rating,soybean (Glycine max); 125 g ai/ha,75
same,"Plant response rating, Soybean",soybean (Glycine max); [4],0
same,"Plant response rating, Soybean",soybean (Glycine max); [5],0
same,"Plant response rating, Soybean",soybean (Glycine max); [6],0
same,"Plant response rating, Soybean","soybean (Glycine max); 125 g ai/ha, scale 0 to 100",0
same,"Plant response rating (scale of 0 to 100), Bermudagrass",[2]; 16 g ai/ha,0
same,"Plant response rating (scale of 0 to 100), Bermudagrass",[2]; 31 g ai/ha,0
same,Bermudagrass plant response rating,[2]; 62 g ai/ha,0
same,Bermudagrass plant response rating,[2]; 125 g ai/ha,15
same,"Plant response rating, Bermudagrass",[2]; [4],0
same,"Plant response rating, Bermudagrass",[2]; [5],0
same,"Plant response rating, Bermudagrass",[2]; [6],0
same,"Plant response rating, Bermudagrass","[2]; 125 g ai/ha, scale 0 to 100",95
same,Johnsongrass plant response rating,[3]; 62 g ai/ha,0
same,Johnsongrass plant response rating,[3]; 125 g ai/ha,0
same,"Plant response rating, Johnsongrass",[3]; [4],0
same,"Plant response rating, Johnsongrass",[3]; [5],0
same,"Plant response rating, Johnsongrass",[3]; [6],0
same,"Plant response rating, Johnsongrass","[3]; 125 g ai/ha, scale 0 to 100",0
